Experiment: Adverse event monitoring, phase I single dose
Experimental: Safety assessments included adverse event (AE) monitoring, vital signs monitoring (systolic and diastolic blood pressure, pulse rate), electrocardiography, physical examinations and laboratory assessments (haematology, clinical chemistry and urinalysis).
The pharmacokinetic analysis set included all participants in the safety analysis set with evaluable pharmacokinetic data and no major protocol deviations. Analyses were performed using Statistical Analysis System (SAS) software, version 9.4. Descriptive statistics were not presented if there were fewer than 3 values available.

C[C@@H](N)c1cc(Cl)ccc1Cn1c(=S)[nH]c(=O)c2[nH]ccc21 [AZD4831]
Any AE (5 mg fasted n = 6): 2 (33.3) n (%) | Epistaxis (5 mg fasted n = 6): 0 n (%) | Gastroenteritis (5 mg fasted n = 6): 0 n (%) | Headache (5 mg fasted n = 6): 0 n (%) | Nasopharyngitis (5 mg fasted n = 6): 0 n (%) | Oropharyngeal pain (5 mg fasted n = 6): 1 (16.7) n (%) | Rash maculopapular (5 mg fasted n = 6): 0 n (%) | Restlessness (5 mg fasted n = 6): 1 (16.7) n (%) | Rhinitis (5 mg fasted n = 6): 0 n (%) | Any AE (15 mg fasted n = 6): 2 (33.3) n (%) | Epistaxis (15 mg fasted n = 6): 1 (16.7) n (%) | Gastroenteritis (15 mg fasted n = 6): 0 n (%) | Headache (15 mg fasted n = 6): 1 (16.7) n (%) | Nasopharyngitis (15 mg fasted n = 6): 0 n (%) | Oropharyngeal pain (15 mg fasted n = 6): 0 n (%) | Rash maculopapular (15 mg fasted n = 6): 0 n (%) | Restlessness (15 mg fasted n = 6): 0 n (%) | Rhinitis (15 mg fasted n = 6): 0 n (%) | Any AE (45 mg fasted n = 6): 3 (50.0) n (%) | Epistaxis (45 mg fasted n = 6): 0 n (%) | Gastroenteritis (45 mg fasted n = 6): 1 (16.7) n (%) | Headache (45 mg fasted n = 6): 2 (33.3) n (%) | Nasopharyngitis (45 mg fasted n = 6): 0 n (%) | Oropharyngeal pain (45 mg fasted n = 6): 0 n (%) | Rash maculopapular (45 mg fasted n = 6): 1 (16.7) n (%) | Restlessness (45 mg fasted n = 6): 0 n (%) | Rhinitis (45 mg fasted n = 6): 0 n (%) | Any AE (45 mg fed n = 4): 0 n (%) | Epistaxis (45 mg fed n = 4): 0 n (%) | Gastroenteritis (45 mg fed n = 4): 0 n (%) | Headache (45 mg fed n = 4): 0 n (%) | Nasopharyngitis (45 mg fed n = 4): 0 n (%) | Oropharyngeal pain (45 mg fed n = 4): 0 n (%) | Rash maculopapular (45 mg fed n = 4): 0 n (%) | Restlessness (45 mg fed n = 4): 0 n (%) | Rhinitis (45 mg fed n = 4): 0 n (%) | Any AE (135 mg fasted n = 6): 3 (50.0) n (%) | Epistaxis (135 mg fasted n = 6): 0 n (%) | Gastroenteritis (135 mg fasted n = 6): 0 n (%) | Headache (135 mg fasted n = 6): 1 (16.7) n (%) | Nasopharyngitis (135 mg fasted n = 6): 1 (16.7) n (%) | Oropharyngeal pain (135 mg fasted n = 6): 0 n (%) | Rash maculopapular (135 mg fasted n = 6): 1 (16.7) n (%) | Restlessness (135 mg fasted n = 6): 0 n (%) | Rhinitis (135 mg fasted n = 6): 0 n (%) | Any AE (405 mg fasted n = 6): 2 (33.3) n (%) | Epistaxis (405 mg fasted n = 6): 0 n (%) | Gastroenteritis (405 mg fasted n = 6): 0 n (%) | Headache (405 mg fasted n = 6): 0 n (%) | Nasopharyngitis (405 mg fasted n = 6): 0 n (%) | Oropharyngeal pain (405 mg fasted n = 6): 1 (16.7) n (%) | Rash maculopapular (405 mg fasted n = 6): 2 (33.3) n (%) | Restlessness (405 mg fasted n = 6): 0 n (%) | Rhinitis (405 mg fasted n = 6): 1 (16.7) n (%) | maculopapular rash (moderate intensity), participants (all participants receiving AZD4831): 4/30 | maculopapular rash (moderate intensity), participants (all participants receiving AZD4831, n = 30): 13.3% | duration of maculopapular rash (in vivo): 5 to 9 days | time of report of maculopapular rash after dosing (in vivo): 7 to 9 days | Any AE (pooled AZD4831 fasted n = 30): 12 (40.0) n (%) | Epistaxis (pooled AZD4831 fasted n = 30): 1 (3.3) n (%) | Gastroenteritis (pooled AZD4831 fasted n = 30): 1 (3.3) n (%) | Headache (pooled AZD4831 fasted n = 30): 4 (13.3) n (%) | Nasopharyngitis (pooled AZD4831 fasted n = 30): 1 (3.3) n (%) | Oropharyngeal pain (pooled AZD4831 fasted n = 30): 2 (6.7) n (%) | Rash maculopapular (pooled AZD4831 fasted n = 30): 4 (13.3) n (%) | Restlessness (pooled AZD4831 fasted n = 30): 1 (3.3) n (%) | Rhinitis (pooled AZD4831 fasted n = 30): 1 (3.3) n (%) | serious AEs or deaths (whole study): no serious AEs or deaths occurred

Source: PMC6422671 (British Journal of Clinical Pharmacology, 2019)
